From ChEMBL document CHEMBL6096699, “Tröger's Base as a Potential Bridge to Type-I Photosensitizers: Mechanism and Antitumor Applications” (J Med Chem, 2025)
Active and inactive are the calls of the source. The calls are words filed in the database; no cut-off is given here.

Columns and labels:
[1] = Induction of type-1 ROS generation in tetrahydrofuran at 0.5 uM followed by LED white light irradiation at 1.8 mWcm/2 for 300 sec by DCFH staining based analysis; format: functional
[2] = Induction of type-1 ROS generation in tetrahydrofuran assessed as fold increase in DHR123 fluorescence intensity at 0.5 uM followed by LED white light irradiation at 1.8 mWcm/2 for 300 sec by DCFH staining based analysis; format: functional
[3] = Induction of type-2 ROS generation in methanol assessed as generation of single oxygen at 0.5 uM followed by Xe lamp irradiation for 5 mins by DCFH staining based analysis; format: functional
[4] = Dark toxicity in human HBE cells assessed as cell viability incubated for 24 hrs in dark by MTT assay; format: cell-based
A549 [5] = assay: Phototoxicity against human A549 cells assessed as reduction in cell proliferation at 0.156 to 10 uM irradiated with LED light at 1.8 mWcm/2 for 2 hrs and measured after 24 hrs under normoxia condition by MTT assay; format: functional, cell-based; conditions: dose 0.156-10 µM, time 26.0 hrs
MCF7 = assay: Phototoxicity against human MCF7 cells assessed as reduction in cell proliferation at 0.156 to 10 uM irradiated with LED light at 1.8 mWcm/2 for 2 hrs and measured after 24 hrs under normoxia condition by MTT assay; format: functional, cell-based; conditions: dose 0.156-10 µM, time 26.0 hrs
HepG2 = assay: Phototoxicity against human HepG2 cells assessed as reduction in cell proliferation at 0.156 to 10 uM irradiated with LED light at 1.8 mWcm/2 for 2 hrs and measured after 24 hrs under normoxia condition by MTT assay; format: functional, cell-based; conditions: dose 0.156-10 µM, time 26.0 hrs
MDA-MB-231 = assay: Phototoxicity against human MDA-MB-231 cells assessed as reduction in cell proliferation at 0.156 to 10 uM irradiated with LED light at 1.8 mWcm/2 for 2 hrs and measured after 24 hrs under normoxia condition by MTT assay; format: functional, cell-based; conditions: dose 0.156-10 µM, time 26.0 hrs
[6] = Phototoxicity against human A549 cells assessed as reduction in cell proliferation irradiated with LED light at 1.8 mWcm/2 for 2 hrs and measured after 24 hrs under normoxia condition by MTT assay; format: functional, cell-based; conditions: A549, light or radiation study
A549 [7] = assay: Inhibition of cell migration in human A549 cells at 0.25 uM preincubated for 12 hrs followed by LED light irradiation 1.8 mW cm/2 for 2 hrs and measured after 48 hrs by wound healing assay; format: functional, cell-based; conditions: time 62.0 hrs
A549 [8] = assay: Inhibition of cell migration in human A549 cells assessed as appearance of blurred cells at 0.25 uM preincubated for 12 hrs followed by LED light irradiation 1.8 mW cm/2 for 2 hrs and measured after 48 hrs by wound healing assay; format: functional, cell-based; conditions: time 62.0 hrs
A549 [9] = assay: Inhibition of cell migration in human A549 cells assessed as appearance of blurred cells at 0.25 uM preincubated for 12 hrs followed by incubation under dark condition and measured after 48 hrs by wound healing assay; format: functional, cell-based; conditions: time 60.0 hrs
[10] = Developmental toxicity in wild type AB zebrafish assessed as effect on morphological abnormalities at 1.57 to 50 uM incubated for 72 hrs followed by LED light irradiation at 1.8 mW cm/2; design: species or system Danio rerio; conditions: in vivo, dose 1.57-50 µM
[11] = Developmental toxicity in wild type AB zebrafish assessed as effect on morphological abnormalities at 1.57 to 50 uM incubated for 72 hrs under dark condition; design: species or system Danio rerio; conditions: in vivo, dose 1.57-50 µM
[12] = Developmental toxicity in wild type AB zebrafish assessed as hatching rate at 50 uM incubated for 72 hrs followed by LED light irradiation at 1.8 mW cm/2 relative to control; design: species or system Danio rerio; conditions: in vivo
[13] = Developmental toxicity in wild type AB zebrafish assessed as survival rate at 50 uM incubated for 72 hrs followed by LED light irradiation at 1.8 mW cm/2 relative to control; design: species or system Danio rerio; conditions: in vivo
[14] = Developmental toxicity in wild type AB zebrafish assessed as effect on heart at 50 uM incubated for 72 hrs followed by LED light irradiation at 1.8 mW cm/2 relative to control; design: species or system Danio rerio; conditions: in vivo
[15] = Developmental toxicity in wild type AB zebrafish assessed as hatching rate at 50 uM incubated for 72 hrs under dark condition; design: species or system Danio rerio; conditions: in vivo
[16] = Drug localization in ER of human A549 cells assessed as colocalization by ER-Tracker green staining based analysis; format: ADME, subcellular, Endoplasmic reticulum
[17] = Drug localization in mitochondria of human A549 cells assessed as colocalization by Mitotracker res staining based analysis; format: ADME
A549 [18] = assay: Induction of intracellular ROS generation in human A549 cells by measuring red fluorescence at 0.4 to 1.2 uM incubated for 24 hrs in presence of LED light irradiation at 1.8 mW cm/2 by DHE based fluorescence microscopy analysis; format: functional, cell-based; conditions: dose 0.4-1.2 µM
A549 [19] = assay: Induction of intracellular ROS generation in human A549 cells by measuring red fluorescence at 0.4 to 1.2 uM incubated for 24 hrs under dark condition by DHE based fluorescence microscopy analysis; format: functional, cell-based; conditions: dose 0.4-1.2 µM
Mitochondrial membrane = assay: Induction of mitochondrial membrane potential loss in human A549 cells assessed as increase in green fluorescence of JC-1 monomers at 0.4 to 1.2 uM incubated for 24 hrs with irradiation of LED light at 1.8 mW cm/2 by light microscopy analysis; format: cell membranes; conditions: dose 0.4-1.2 µM
A549 [20] = assay: Induction of apoptosis in human A549 cells assessed as downregulation of Bcl-2 expression at 2.5 to 5 uM with irradiation of LED light at 1.8 mW cm/2 by Western blot analysis; format: functional, cell-based; conditions: dose 2.5-5 µM
A549 [21] = assay: Induction of apoptosis in human A549 cells assessed as downregulation of caspase-3 expression at 2.5 to 5 uM with irradiation of LED light at 1.8 mW cm/2 by Western blot analysis; format: functional, cell-based; conditions: dose 2.5-5 µM
A549 [22] = assay: Induction of apoptosis in human A549 cells assessed as upregulation of cleaved caspase-3 expression at 2.5 to 5 uM with irradiation of LED light at 1.8 mW cm/2 by Western blot analysis; format: functional, cell-based; conditions: dose 2.5-5 µM
A549 [23] = assay: Induction of apoptosis in human A549 cells assessed as upregulation of cleaved PARP expression at 2.5 to 5 uM with irradiation of LED light at 1.8 mW cm/2 by Western blot analysis; format: functional, cell-based; conditions: dose 2.5-5 µM
[24] = target: T1, c-Jun N-terminal kinase, JNK (Homo sapiens) (UniProt P45983+P53779+P45984); assay: Activation of JNK pathway in human A549 cells assessed as effect on JNK protein expression at 2.5 to 5 uM by Western blot analysis; format: cell-based; conditions: filed as activator, dose 2.5-5 µM
[25] = target: Signal transducer and activator of transcription 3 (Homo sapiens) (UniProt P40763); assay: Inhibition of STAT3 pathway in human A549 cells assessed as decrease in STAT3 phosphorylation level at 2.5 to 5 uM by Western blot analysis; format: cell-based; conditions: dose 2.5-5 µM
[26] = target: T1, c-Jun N-terminal kinase, JNK (Homo sapiens); assay: Activation of JNK pathway in human A549 cells assessed as increase in JNK phosphorylation level at 2.5 to 5 uM by Western blot analysis; format: cell-based; conditions: filed as activator, dose 2.5-5 µM
A549 [27] = assay: Activation of ERK1/2 pathway in human A549 cells assessed as increase in ERK phosphorylation level at 2.5 to 5 uM by Western blot analysis; format: cell-based; conditions: filed as activator, dose 2.5-5 µM
A549 [28] = assay: Activation of MAPK pathway in human A549 cells assessed as increase in MAPK phosphorylation level at 2.5 to 5 uM by Western blot analysis; format: cell-based; conditions: filed as activator, dose 2.5-5 µM

Signal transducer and activator of transcription 3 (Homo sapiens), sequence (P40763 whole entry): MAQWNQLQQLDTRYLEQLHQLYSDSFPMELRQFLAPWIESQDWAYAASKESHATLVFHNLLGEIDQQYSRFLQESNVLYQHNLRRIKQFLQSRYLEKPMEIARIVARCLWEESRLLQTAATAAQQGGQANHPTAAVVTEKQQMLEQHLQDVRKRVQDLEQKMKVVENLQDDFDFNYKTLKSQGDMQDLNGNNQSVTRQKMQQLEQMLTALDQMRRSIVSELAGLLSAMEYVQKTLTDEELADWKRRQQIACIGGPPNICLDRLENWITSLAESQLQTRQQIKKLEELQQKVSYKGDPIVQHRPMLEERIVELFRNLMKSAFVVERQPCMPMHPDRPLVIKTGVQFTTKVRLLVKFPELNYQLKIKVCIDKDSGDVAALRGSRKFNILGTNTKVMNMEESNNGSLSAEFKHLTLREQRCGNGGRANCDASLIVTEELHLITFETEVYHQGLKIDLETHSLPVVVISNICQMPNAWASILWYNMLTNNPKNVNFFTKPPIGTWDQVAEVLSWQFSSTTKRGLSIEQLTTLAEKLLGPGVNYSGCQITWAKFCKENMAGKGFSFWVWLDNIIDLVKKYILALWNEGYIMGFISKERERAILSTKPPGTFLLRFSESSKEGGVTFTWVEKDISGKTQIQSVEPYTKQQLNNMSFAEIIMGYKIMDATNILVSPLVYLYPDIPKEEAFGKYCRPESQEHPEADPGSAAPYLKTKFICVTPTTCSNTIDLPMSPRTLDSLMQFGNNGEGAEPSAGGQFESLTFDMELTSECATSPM

CCN(CC)c1ccc2cc(C(=O)/C=C/c3ccc4c(c3)CN3CN4Cc4cc(Br)ccc43)c(=O)oc2c1
Activity [1]: Active
fold change (FC) [2]: 25.6
Activity [3]: Active
Activity [4]: Toxic
Activity (A549 [5]): Active
Activity (MCF7): Active
Activity (HepG2): Active
Activity (MDA-MB-231): Active
IC50 [6]: 460 nM
inhibition (A549 [7]): Active
inhibition (A549 [8]): Active
inhibition (A549 [9]): Active
Activity [10]: Non-toxic
Activity [11]: Non-toxic
Activity [12]: 100%
survival at 72 h, 50 µM [13]: 100%
Activity [14]: Non-toxic
Activity [15]: 100%
Drug uptake [16]: Active
Drug uptake [17]: Active
Activity (A549 [18]): Active
Activity (A549 [19]): inactive
Activity (Mitochondrial membrane): Active
Activity (A549 [20]): Active
Activity (A549 [21]): Active
Activity (A549 [22]): Active
Activity (A549 [23]): Active
Activity [24]: Active; Compound Showed Little Change In Protein Expression
inhibition [25]: Active
Activity [26]: Active
Activity (A549 [27]): Active
Activity (A549 [28]): Active
